From ChEMBL document CHEMBL1123141, “N-[2-hydroxy-5-[2-(methylamino)ethyl]phenyl]methanesulfonamide. A potent agonist which releases intracellular calcium by activation of alpha 1-adrenoceptors” (J Med Chem, 1985)

Tests used:
[1] = Dissociation constant against constrictor response to the compound blocked competitively by phentolamine for alpha-mediated events; assay type: functional
[2] = target: T1, Alpha-1A adrenergic receptor (Homo sapiens) (UniProt P35348); assay: Effect of 1 uM external [Ca2+] on the contractions induced by compound in the canine saphenous vein at EC100 concentration and expressed as percent of control response in […] Ca+; absolute concentration 5.0 X 10e-5 M; assay type: functional, tissue-based; conditions: Canis lupus familiaris
T1 sequence (whole entry): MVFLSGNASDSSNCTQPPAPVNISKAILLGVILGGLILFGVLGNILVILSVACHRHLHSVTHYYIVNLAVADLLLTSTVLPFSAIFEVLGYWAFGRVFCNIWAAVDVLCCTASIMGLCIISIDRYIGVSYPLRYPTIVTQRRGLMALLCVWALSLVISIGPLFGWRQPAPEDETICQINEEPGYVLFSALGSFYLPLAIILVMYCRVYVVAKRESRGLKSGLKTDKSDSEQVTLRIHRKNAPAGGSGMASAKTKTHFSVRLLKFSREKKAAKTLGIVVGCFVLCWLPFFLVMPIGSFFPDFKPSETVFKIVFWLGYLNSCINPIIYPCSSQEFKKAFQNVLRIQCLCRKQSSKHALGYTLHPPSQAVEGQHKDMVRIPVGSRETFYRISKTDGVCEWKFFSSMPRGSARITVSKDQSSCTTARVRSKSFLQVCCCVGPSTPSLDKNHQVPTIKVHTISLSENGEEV

[3] = target: T1, Alpha-1A adrenergic receptor (Homo sapiens); assay: Effect of 1 uM external [Ca2+] on the contractions induced by compound in the canine saphenous vein at EC25 concentration and expressed as percent of control response in […] Ca+; absolute concentration 1.5 +/-0.7 X 10e-7 M; assay type: functional, tissue-based; conditions: Canis lupus familiaris
[4] = target: T1, Alpha-1A adrenergic receptor (Homo sapiens); assay: Effect of 1 uM external [Ca2+] on the contractions induced by compound in the canine saphenous vein at EC50 concentration and expressed as percent of control response in […] Ca+; absolute concentration 5.0 +/- 1.5 X 10e-7 M; assay type: functional, tissue-based; conditions: Canis lupus familiaris
[5] = target: T1, Alpha-1A adrenergic receptor (Homo sapiens); assay: Effect of zero external [Ca2+] on the contractions induced by acompound in the canine saphenous vein at EC50 concentration experimented in the presence of 2 mM EGTA and expressed as percent of control response in […] Ca+ physiological saline; abso; assay type: functional, tissue-based; conditions: Canis lupus familiaris
[6] = target: T1, Alpha-1A adrenergic receptor (Homo sapiens); assay: Effect of zero uM external [Ca2+] on the contractions induced by compound in the canine saphenous vein at EC100 concentration experimented in the presence of 2 mM EGTA and expressed as percent of control response in […] Ca+ physiological saline; absolute concentration 5.0 X 10e-5 M; assay type: functional, tissue-based; conditions: Canis lupus familiaris
[7] = target: T1, Alpha-1A adrenergic receptor (Homo sapiens); assay: Effect of zero external [Ca2+] on the contractions induced by compound in the canine saphenous vein in the presence of 2 mM EGTA and expressed as percent of control response in […] Ca+ physiological saline; absolute concentration 1.5 +/-0.7 X 10e-; assay type: functional, tissue-based; conditions: Canis lupus familiaris

## CNCCc1ccc(O)c(NS(C)(=O)=O)c1
[1]
  Ki: < 20 nM
[2]
  Control response: 78.3%
[3]
  Control response: 8.1%
[4]
  Control response: 37.6%
[5]
  Control response: 20.2%
[6]
  Control response: 37.9%
[7]
  Control response: 6%
